Marks after values point to notes of the source that are not given here.
How the values were obtained:
[1] = system: hApoE2 KI/PPARalpha KO mice; experiment: hApoE2 KI/PPARalpha KO mice on Western diet, hepatic gene expression by quantitative RT-PCR; type: in vivo; settings: 30 mg/kg/day by gavage, 6 weeks
Method: (§1) The compounds of the General Formula (I) were tested in vivo in a high fat diet mice model. Dyslipidemic “humanized” hApoE2 KI deficient for PPARalpha were fed a Western diet and treated during 6 weeks. The compounds of interest, including the Compound 29 of WO 2004/005233 at 30 mg/kg/day and the Compound 1 of WO 2007/147879 at 30 mg/kg/day were orally administrated by gavage. At the end of the protocol, animals were sacrificed, livers were harvested and the hepatic expression of relevant genes implicated in the liver inflammation and the fibrosis processes were evaluated by quantitative RT-PCR. In parallel, liver triglycerides contents were evaluated (Panels A-D). Statistical analysis was performed as indicated for FIG. 1.
Animals were fed a Western diet (20% saturated fat and 0.2% cholesterol, Harlan Teklad TD88137) during 2 weeks in the first study, that involved the daily administration of Cpd 29 (at 30 mg/kg/day by oral gavage), and during 6 weeks in the second study, that involved the daily administration of Compound 1 of WO 2007147879 (Cpd1, at 30 mg/kg/day by oral gavage). Control animals were treated with vehicle only (Carboxymethlycellulose 1%+Tween-80 0.1%). Animals had access to food and water ad libitum.
At the end of the studies, the animals were weighed and sacrificed under anesthesia. Blood was collected from the retro-orbital sinus; plasma was obtained by centrifugation (4 000 rpm, at 4° C. for 15 min) and subsequently frozen and stored at −20° C. Tissues and livers were isolated and snap-frozen in liquid nitrogen and stored at −80° C. for subsequent analysis (gene expression and biochemistry) or fixed in 4% paraformaldehyde for histology.
Total RNA was isolated from frozen livers using the NucleoSpin® 96 RNA kit (Macherey Nagel), according to the manufacturer's instructions. Reverse transcription was performed on 1 μg of total RNA by action of 1 μl of MMLV-RT enzyme (Invitrogen) during 1 hour at 37° C. in a total volume of 30 μl. The reaction conditions were 1× buffer (Invitrogen), 1.5 mM DTT (Invitrogen), 0.18 mM dNTPs (Promega), 200 ng pdN6 (Amersham), 30U RNase inhibitor (Promega). Quantitative PCR was then carried out using the MyiQ Single-Color Real-Time PCR Detection System (Biorad). Briefly PCR reactions were performed in 96 well plates on 5 μl of diluted reverse transcription mix using the iQ SYBR Green Supermix kit. The reaction conditions were: 25 μl of volume reaction, 3 mM of MgCl2, and 0.5 μl of each reverse and forward primer solutions (10 pMol), Tm of 60° C.
The quantity of fluorescence emitted is directly proportional to the quantity of complementary DNA present at the start of the reaction and amplified during the PCR. The relative levels of expression were determined using the standard curve for each transcript. The results were then normalized in regard to the signals obtained with the 36B4 control (a reference transcript for hepatic gene expression). The induction factor, i.e. the ratio between the relative signal induced by the compound according to the invention and the average of the values relating to the control group, was then calculated for each sample. The higher this factor, the more the compound promotes target gene expression. The final result is depicted as the average of the induction values in each experimental group.
(§2) In another study, the liver-specific anti-inflammatory and anti-fibrotic properties effects of Cpd 29 and Compound 1 of WO 2007/147879 (Cpd 1) were evaluated in the hApoE2 KI/PPARalpha KO mice that were fed a Western diet and daily treated with the selected compounds during 6 weeks.

[2] = system: hApoE2 KI/PPARalpha KO mice; experiment: hApoE2 KI/PPARalpha KO mice on Western diet, hepatic lipid analysis (liver triglycerides); type: in vivo; settings: 30 mg/kg/day by gavage, 6 weeks, FIG. 4D
Method: as §1
Animals were fed a Western diet (20% saturated fat and 0.2% cholesterol, Harlan Teklad TD88137) during 2 weeks in the first study, that involved the daily administration of Cpd 29 (at 30 mg/kg/day by oral gavage), and during 6 weeks in the second study, that involved the daily administration of Compound 1 of WO 2007147879 (Cpd1, at 30 mg/kg/day by oral gavage). […]
as §2

[3] = system: human primary hepatic stellate cells (hHSC); experiment: TGFβ1-induced hHSC activation, gene expression by quantitative PCR; type: cell-based; settings: TGFβ1 1 ng/ml, 24 hours; for inhibition at 10 µM: Homo sapiens; for Inhibition of the TGFβ1-induced hHSC activation: Col1α1 / Inhibition of the TGFβ1-induced hHSC activation: Col4α1 / Inhibition of the TGFβ1-induced hHSC activation: αSMA: 10 μM
Method: (§3) Compounds were dissolved in dimethyl sulfoxide (DMSO, Fluka cat #41640)
(§4) The human primary hepatic stellate cells (hHSC) (ScienCell) were cultured in STeCM medium (ScienCell cat #5301) that was supplemented with 2% fetal bovine serum (FBS, ScienCell cat #0010), 1% penicillin/streptomycine (ScienCell cat #0503) and stellate cell growth supplement (SteCGS; ScienCell cat #5352). Culture plastics were coated with Poly-L Lysine (Sigma cat # P4707).
The human primary hepatic stellate cells (hHSC) (ScienCell) were cultured under standard conditions, as described above. For experiments to determine gene expression patterns, hHSC were plated at a density of 7×10^4 cells/well into 24-well plates and were cultured overnight. Next day, culture medium was replaced by serum-free and SteCGS-free medium for an additional 16 hours. Cells were treated with a compound of General Formula (I) in addition to TGFβ1 (1 ng/ml) in a serum-free and SteCGS-free medium for 24 hours.
Total RNA was isolated using Nucleospin® 96 RNA kit (Macherey Nagel) following manufacturer's instructions. 100 ng of total RNA were reverse transcribed in cDNA using M-MLV RT (Moloney Murine Leukemia Virus Reverse Transcriptase) (Invitrogen cat #28025) in presence of RT buffer 1× (Invitrogen), 1 mM DTT (Invitrogen), 0.18 mM dNTPs (Promega), 200 ng pdN6 (Amersham) and 30U of RNase inhibitor (Promega).
Quantitative PCR was then carried out using the CFX96 TOUCH™ Real-Time PCR Detection System (Biorad). Briefly, PCR reactions were performed in 96 well plates on 5 μl of 5× diluted reverse transcription mix using the iQ SYBR Green Supermix kit. The experimental conditions were: 25 μl of volume reaction, 3 mM of MgCl2, and 0.5 μl each of reverse and forward primers (10 pMol).
Expression levels were normalized using the expression of 36B4 gene as reference (sequences SEQ ID NO: 1 and SEQ ID NO: 2 as shown above).
For each gene, the standard curves were drawn by selecting the best points (at least three points) in order to have PCR reaction efficiency close to 100% and a correlation coefficient close to 1. Expression levels were determined using the standard curve equation for both the housekeeping gene and the target gene (taking into account the specific PCR efficiency of each target gene).

[4] = system: human primary hepatic stellate cells (hHSC); experiment: PDGF-BB-induced hHSC proliferation, BrdU incorporation; type: cell-based; settings: PDGF-BB 10 ng/ml; for Inhibition of the PDGF-BB-induced hHSC proliferation: BrdU Incorporation: 10 μM
Method: as §3, §4
hHSC were plated at a density of 1.2×10^4 cells/well into 96-well plates and were cultured overnight at 37° C. and 5% CO2, followed by washing of cells with PBS (Invitrogen cat #14190) and replacing the growth medium with a serum-free and SteCGS-free medium for an additional 24 hours. For PDGF-induced proliferation assay, cells were pre-treated with a compound of General Formula (I) for 1 hour before the addition of PDGF-BB (10 ng/ml; R&D Systems cat #520-BB). Treatments were then continued for additional 20 hours.
Cell proliferation was measured by bromodeoxyuridine (BrdU) incorporation using a BrdU labeling and detection kit (Roche cat #11647229001). BrdU labeling solution was added to cells, followed by incubation for another 4 hours before fixation, addition of nucleases, addition of anti-BrdU-POD and peroxidase substrate. The absorbance at 405 nm (with a reference wavelength at 690 nm) was measured using an ELISA plate reader (Tecan).

Row | SMILES | Inhibition of the TGFβ1-induced hHSC activation: Col1α1 [3] | Inhibition of the TGFβ1-induced hHSC activation: Col4α1 [3] | Inhibition of the TGFβ1-induced hHSC activation: αSMA [3] | Inhibition of the PDGF-BB-induced hHSC proliferation: BrdU Incorporation [4] | also measured
1 | CSc1ccc(C(=O)CCc2cc(C)c(OC(C)(C)C(=O)O)c(C)c2)cc1 [Cpd 1, 2-[2,6-dimethyl-4-[3-[4-(methylthio)phenyl]-3-oxo-propyl]phenoxy]-2-methylpropanoic acid] |  |  |  |  | liver expression of TNFα ([1]; FIG. 4A): inhibited; liver expression of TGFβ ([1]; FIG. 4B): inhibited; liver expression of collagen ([1]; FIG. 4C): inhibited; triglycerides accumulation in the liver [2]: prevented
2 | CSc1ccc(C(=O)C=Cc2cc(C)c(OCC(=O)O)c(C)c2)cc1 [Cpd 72 US20070032543, 1-[4-methylthiophenyl]-3-[3,5-dimethyl-4-carboxymethyloxyphenyl]prop-2-en-1-one] |  |  |  |  | inhibition at 10 µM ([3]; read-out: Inhibition of the TGFβ1-induced hHSC activation: Col1α1): 37%; inhibition at 10 µM ([3]; read-out: Inhibition of the TGFβ1-induced hHSC activation: Col4α1): 51%; inhibition at 10 µM ([3]; read-out: Inhibition of the TGFβ1-induced hHSC activation: αSMA): 74%; inhibition at 10 µM ([4]; Homo sapiens): 126%
3 | CSc1ccc(C(=O)C=Cc2cc(C(C)C)c(OCC(=O)O)c(C(C)C)c2)cc1 [Cpd 74 US20070032543, 1-[4-methylthiophenyl]-3-[3,5-diisopropyl-4-carboxymethyloxyphenyl]prop-2-en-one] | −82% *** | −85% *** | −97% *** | −127% *** | 
4 | COc1ccc(C(=O)C=Cc2cc(C)c(OC(C)(C)C(=O)O)c(C)c2)cc1 [Cpd 80 US20070032543, 1-[4-methyoxyphenyl]-3-[3,5-dimethyl-4-carboxydimethylmethyloxyphenyl]prop-2-en-1-one] | −64% ** | −66% *** | −55% *** | −136% *** | 
5 | CCCCCCSc1ccc(C(=O)C=Cc2cc(C)c(OC(C)(C)C(=O)O)c(C)c2)cc1 [Cpd 84 US20070032543, 1-[4-hexylthiophenyl]-3-[3,5-dimethyl-4-carboxydimethylmethyloxyphenyl]prop-2-en-1-one] | −60% ** | −64% *** | −64% *** | −33% | 
